Experiments:
[1] = biological target: T1, cellular TDO2 in HEK293-TDO2 cells (Homo sapiens, UniProt P48775); assay: 293-TDO2 cell-based assay (Kyn colorimetric); settings: 48 hours of incubation
T1 construct: expressed in transfected cells; host or cells: HEK293 (ATCC), stably transfected
Procedure: The inhibitory activity of TDO2 inhibitors is determined by using a colorimetric reaction to measure Kyn generated from L-Trp (L-Tryptophon) oxidation by cellular TDO2 in HEK293-TDO2 cells stably transfected with a plasmid expression of Tryptophan 2,3-dioxygenase (for short, 293-TDO2).
HEK293 cells were obtained from the American Type Culture Collection and 293-TDO2 were recovered in 10% FBS-containing phenol red-free DMEM medium. Cells were plated onto a 96-well plate (100 μl/well) at 10000 cells per well and kept at 37° C. in a humidified incubator supplied with 5% CO2. 4 hours later, Compounds at different concentrations diluted in dimethylsulfoxide (DMSO) were added to plate. Cells were kept at 37° C. in a humidified incubator supplied with 5% CO2. After 48 hours of incubation, 100 μl supernatant from each well was removed to a new plate. The protein in the medium was precipitated with the addition of 8 μl 6N trichloroacetic acid. The plate was incubated at 60° C. for 30 minutes and then centrifugation at 2500 rpm for 10 minutes to remove sediments. 80 μl supernatants were carefully removed to a new clean plate and added with an equal volume of 2% 4-(Dimethylamino) benzaldehyde (D2004, sigma) dissolved in glacial acetic acid. The absorbance at 480 nm wavelength derived from Kyn was measured using a PHERAstar FS plate reader (BMG LABTECH). The IC50 for each compound was derived from fitting the dose-response data to the four-parameter logistic model by using XLfit software (IDBS).

IDO1 [2] = biological target: T2, IDO1 (Homo sapiens, UniProt P14902); assay: IDO1 enzymatic assay; format: biochemical; parameters: His tag (N); made in house; host or cells: E. coli; settings: read-out: Enzyme IC50 IDO1
Outline: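 Recombinant IDO1 carrying an N-terminal His tag and purified from E. coli was used at 50 nM with test compound, 1.3 mM D-tryptophan, 5 mM L-ascorbic acid, methylene blue and 0.4 mg/mL catalase in 50 mM potassium phosphate pH 7.5 containing 0.1% BSA. This mixture was incubated at 24 °C for 1.5 hours, after which N'-formylkynurenine formation was followed continuously at 321 nm for 1 hour and activity was taken as the slope. IC50 was derived from the enzyme activity remaining as compound concentration increased.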

IDO1 [3] = biological target: T2, IDO1; assay: Hela cell-based IDO1 assay; settings: Hela cells
Outline: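 HeLa cells were plated at 8000 per well in 96-well plates containing phenol red-free DMEM with 10% FBS, and after 4 hours compound dilutions made in DMSO were added together with IFN-γ (final 100 ng/mL) and 0.4 mM L-Trp before 48 hours at 37 °C, 5% CO2. Supernatants were deproteinised with trichloroacetic acid, mixed with 2% 4-(dimethylamino)benzaldehyde and read at 480 nm for kynurenine. Four-parameter logistic fits were run in XLfit. Potency was derived from these fits.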

T2 sequence (P14902 whole entry): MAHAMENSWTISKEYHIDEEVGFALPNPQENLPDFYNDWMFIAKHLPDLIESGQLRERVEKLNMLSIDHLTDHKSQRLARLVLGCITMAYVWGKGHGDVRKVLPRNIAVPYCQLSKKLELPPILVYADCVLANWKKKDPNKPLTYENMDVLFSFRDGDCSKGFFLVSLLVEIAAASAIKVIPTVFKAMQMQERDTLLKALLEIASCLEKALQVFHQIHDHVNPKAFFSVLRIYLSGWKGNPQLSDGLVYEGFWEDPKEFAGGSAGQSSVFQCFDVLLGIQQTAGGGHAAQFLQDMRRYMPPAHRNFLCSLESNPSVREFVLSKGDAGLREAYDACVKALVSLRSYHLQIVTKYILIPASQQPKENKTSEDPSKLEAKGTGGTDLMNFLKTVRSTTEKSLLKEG
T1 sequence (P48775 whole entry): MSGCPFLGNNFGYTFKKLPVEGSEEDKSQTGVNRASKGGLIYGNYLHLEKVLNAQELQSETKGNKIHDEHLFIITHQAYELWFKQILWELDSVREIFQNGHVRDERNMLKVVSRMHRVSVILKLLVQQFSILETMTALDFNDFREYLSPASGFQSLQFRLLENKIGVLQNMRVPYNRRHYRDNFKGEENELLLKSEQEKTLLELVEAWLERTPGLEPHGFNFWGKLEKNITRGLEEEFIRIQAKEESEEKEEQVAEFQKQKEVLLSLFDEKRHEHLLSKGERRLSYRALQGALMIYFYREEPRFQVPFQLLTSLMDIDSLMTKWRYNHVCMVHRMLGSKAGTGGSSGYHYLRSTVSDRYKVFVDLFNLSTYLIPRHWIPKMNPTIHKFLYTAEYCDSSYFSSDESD

SMILES | EC50 [1] [µM] | IC50 (IDO1 [2]) [µM] | EC50 (IDO1 [3]) [µM]
OC(c1c(C2CC2)ccc2cncn12)[C@H]1CC[C@@H](c2ccc(Cl)cc2)CC1 (single isomer, unassigned) [Example D103a] | > 10 | 1.9 | > 10
OC(c1c(C2CC2)ccc2cncn12)[C@H]1CC[C@H](c2ccc(Cl)cc2)CC1 (single isomer, unassigned) [Example D103b] | > 10 | 7.8 | 6.88
O[C@@H](c1c(C2CC2)ccc2cncn12)[C@H]1CC[C@H](c2ccc(F)cc2)CC1 (single isomer, unassigned) [Example D104b] | > 10 | 9.9 | 6.83
O[C@@H](c1c(C2CC2)ccc2cncn12)[C@H]1CC[C@H](c2ccc(OC(F)(F)F)cc2)CC1 (single isomer, unassigned) [Example D105b] | > 10 | > 10 | 3.9
OC(c1c(C2CC2)ccc2cncn12)[C@H]1CC[C@H](c2ccc(C(F)(F)F)nc2)CC1 (single isomer, unassigned) [Example D107a] | > 10 | 0.036 | 1.26
OC(c1c(C2CC2)ccc2cncn12)[C@H]1CC[C@H](c2ccc(C(F)(F)F)nc2)CC1 (single isomer, unassigned) [Example D107b] | > 10 | 2.3 | > 10
N#Cc1ccc([C@H]2CC[C@H]([C@@H](O)c3c(C4CC4)ccc4cncn34)CC2)cc1 (single isomer, unassigned) [Example D110b] | > 10 | > 10 | > 10
O=C(O)c1ccc([C@H]2CC[C@H]([C@H](O)c3c(C4CC4)ccc4cncn34)CC2)cc1 (single isomer, unassigned) [Example D111a] | > 10 | 0.017 | 0.351
O=C(O)c1ccc([C@H]2CC[C@H]([C@@H](O)c3c(C4CC4)ccc4cncn34)CC2)cc1 (single isomer, unassigned) [Example D111b] | > 10 | 1.2 | > 10
Oc1ccccc1[C@H]1CC[C@H]([C@H](O)c2c(C3CC3)ccc3cncn23)CC1 (single isomer, unassigned) [Example D112a] | > 10 | 0.015 | 0.026
Oc1ccccc1[C@H]1CC[C@H]([C@@H](O)c2c(C3CC3)ccc3cncn23)CC1 (single isomer, unassigned) [Example D112b] | > 10 | 1.7 | > 10
OC(c1c(C2CC2)ccc2cncn12)[C@H]1CC[C@H](c2ccc(OC3CCOCC3)cc2)CC1 (single isomer, unassigned) [Example D114b] | > 10 | 2.6 | 3.97
CC(C)c1ccc2cncn2c1[C@H](O)[C@H]1CC[C@H](c2ccc(Cl)cc2)CC1 (single isomer, unassigned) [Example D115b] | > 10 | 4.3 | 5.68
O[C@@H](c1c(C2CC2)ccc2cncn12)[C@H]1CC[C@H](c2cccc(Cl)c2)CC1 (single isomer, unassigned) [Example D116b] | > 10 | 5.9 | 6.15
O[C@H](c1c(C2CC2)ccc2cncn12)[C@H]1CC[C@H](c2ccccc2Cl)CC1 (single isomer, unassigned) [Example D117a] | > 10 | 0.03 | 0.492
O[C@@H](c1c(C2CC2)ccc2cncn12)[C@H]1CC[C@H](c2ccccc2Cl)CC1 (single isomer, unassigned) [Example D117b] | > 10 | > 10 | 0.099
O[C@@H](c1c(C2CC2)ccc2cncn12)[C@H]1CC[C@H](c2ccc(Br)cc2)CC1 (single isomer, unassigned) [Example D118b] | > 10 | > 10 | 8.41
O[C@@H](c1c(C2CC2)ccc2cncn12)[C@H]1CC[C@H](c2ccc(-c3ccccc3)cc2)CC1 (single isomer, unassigned) [Example D119b] | > 10 | 2.2 | 3.53
